This passage reports IC50 results from patent publication US20150352108A1, “AMINO-PYRIMIDINE COMPOUNDS AS INHIBITORS OF TBK1 AND/OR IKK EPSILON” (Alzheimer's Institute of America, priority 2009, published 2015).

Test [1] deals with T1, IKKε (Homo sapiens, UniProt Q14164).
T1 construct: His-tag; made in house; host or cells: Sf9 insect cells
T1 sequence (Q14164 1-716): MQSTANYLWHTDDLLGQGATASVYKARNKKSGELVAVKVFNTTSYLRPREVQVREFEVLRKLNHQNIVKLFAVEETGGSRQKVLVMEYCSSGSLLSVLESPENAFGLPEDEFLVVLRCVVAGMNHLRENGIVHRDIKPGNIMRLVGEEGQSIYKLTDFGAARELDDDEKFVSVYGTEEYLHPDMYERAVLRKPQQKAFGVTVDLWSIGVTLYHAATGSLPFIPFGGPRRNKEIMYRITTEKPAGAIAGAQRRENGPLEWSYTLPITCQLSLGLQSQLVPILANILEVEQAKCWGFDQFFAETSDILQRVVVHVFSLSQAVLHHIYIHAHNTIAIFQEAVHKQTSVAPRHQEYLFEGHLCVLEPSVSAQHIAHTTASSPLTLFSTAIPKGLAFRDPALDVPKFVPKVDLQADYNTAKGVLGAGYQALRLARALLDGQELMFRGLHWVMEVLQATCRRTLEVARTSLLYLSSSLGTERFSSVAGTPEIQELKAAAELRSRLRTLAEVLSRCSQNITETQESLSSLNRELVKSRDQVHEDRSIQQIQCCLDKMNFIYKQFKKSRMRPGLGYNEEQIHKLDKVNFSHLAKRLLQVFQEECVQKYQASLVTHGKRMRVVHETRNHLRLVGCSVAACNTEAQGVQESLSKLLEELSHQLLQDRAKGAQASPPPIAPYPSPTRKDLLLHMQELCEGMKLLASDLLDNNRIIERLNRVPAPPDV
The test is described as follows: In-vitro IKKε kinase assay ([γ33]ATP filter-plate). The test is classed as biochemical. The procedure, abridged:
(§1)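 His-tagged Sf9-expressed kinases at 0.1 or 0.02 μg/ml (TBK1) and 0.1 or 0.015 μg/ml (IKKε) for normal and sensitized formats, with myelin basic protein or casein substrate. ATP was at 2×Km (60 μM TBK1, 32 μM IKKε) plus 0.3 μCi [γ33]ATP. Reactions ran 30-45 min, were captured on P-81 filters, and counts were normalized to DMSO.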

Test [2] addresses T2, TBK1 (Homo sapiens, UniProt Q9UHD2).
T2 construct: His-tag; made in house; host or cells: Sf9 insect cells
T2 sequence (Q9UHD2 1-729): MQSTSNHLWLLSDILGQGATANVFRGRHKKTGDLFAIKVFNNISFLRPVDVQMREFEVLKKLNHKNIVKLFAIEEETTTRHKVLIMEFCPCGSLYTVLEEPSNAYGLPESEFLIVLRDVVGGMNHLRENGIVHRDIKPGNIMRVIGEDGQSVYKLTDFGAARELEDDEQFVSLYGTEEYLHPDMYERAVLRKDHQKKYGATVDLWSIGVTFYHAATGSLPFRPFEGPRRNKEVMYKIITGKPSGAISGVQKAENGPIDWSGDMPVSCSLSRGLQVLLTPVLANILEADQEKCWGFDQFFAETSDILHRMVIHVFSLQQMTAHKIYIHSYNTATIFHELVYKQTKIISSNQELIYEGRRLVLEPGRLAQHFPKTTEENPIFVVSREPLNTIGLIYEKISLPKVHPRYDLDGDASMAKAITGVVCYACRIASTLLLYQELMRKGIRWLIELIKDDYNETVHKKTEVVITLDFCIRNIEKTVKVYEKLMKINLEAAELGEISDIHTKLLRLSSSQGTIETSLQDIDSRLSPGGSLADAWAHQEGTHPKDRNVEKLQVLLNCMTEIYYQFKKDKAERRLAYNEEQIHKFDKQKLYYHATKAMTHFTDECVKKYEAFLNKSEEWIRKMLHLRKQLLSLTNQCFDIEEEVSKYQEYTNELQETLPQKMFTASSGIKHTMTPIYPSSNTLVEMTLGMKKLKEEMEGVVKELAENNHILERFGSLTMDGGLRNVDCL
In words: In-vitro TBK1 kinase assay ([γ33]ATP filter-plate). The test is classed as biochemical. Put shortly:
as §1

Setting [3] is: text bins, read-out: IC50 for inhibition of the kinase activity of IKKε.
Setting [4] is: text bins, read-out: IC50 for inhibition of the kinase activity of TBK1.

Like-named read-outs stand apart in the source and are kept apart here.

As for `COc1cc(Nc2nccc(-c3ccc(OC)c(C#N)c3)n2)cc(OCCN2CCOCC2)c1` [Example 138, 2-Methoxy-5-[2-({3-methoxy-5-[2-(morpholin-4-yl)ethoxy]phenyl}amino)pyrimidin-4-yl]benzonitrile], the IC50 (commonly the midpoint of a concentration-inhibition curve) in test [1] (setting [3]) lay within 5 to 50 nM; in test [2] (setting [4]) it was 10 to 100 nM.

Regarding `N#Cc1cc(-c2ccnc(Nc3ccc(N4CCOCC4)cc3)n2)ccc1OC1CNC1` [Example 143, 2-(azetidin-3-yloxy)-5-(2-{[4-(morpholin-4-yl)phenyl]amino}pyrimidin-4-yl)benzonitrile], the IC50 in test [1] (setting [3]) is 5 to 50 nM; in test [2] (setting [4]) it was less than 10 nM.

Consider `CC(=O)NCCCOc1ccc(-c2ccnc(Nc3ccc(N4CCOCC4)cc3)n2)cc1C#N` [Example 149, N-{3-[2-cyano-4-(2-{[4-(morpholin-4-yl)phenyl]amino}pyrimidin-4-yl)phenoxy]propyl} acetamide], for which the concentration for half-maximal inhibition (IC50) in test [1] (setting [3]) was in the range of 5 to 50 nM; in test [2] (setting [4]), 10 to 100 nM.

`C[C@H](O)C(=O)N1CCC(COc2ccc(-c3ccnc(Nc4ccc(N5CCOCC5)cc4)n3)cc2C#N)CC1` [Example 152, 2-({1-[(2S)-2-hydroxypropanoyl]piperidin-4-yl}methoxy)-5-(2-{[4-(morpholin-4-yl)phenyl]amino}pyrimidin-4-yl)benzonitrile]: the IC50 lay within 5 to 50 nM in test [1] (setting [3]) and 10 to 100 nM in test [2] (setting [4]).

With `COc1cc(Nc2nccc(-c3ccc(OC4CCOCC4)c(C#N)c3)n2)ccc1S(=O)(=O)NCCCO` [Example 155, 4-({4-[3-cyano-4-(tetrahydro-2H-pyran-4-yloxy)phenyl]pyrimidin-2-yl}amino)-N-(3-hydroxypropyl)-2-methoxybenzene-sulfonamide], the IC50 was less than 5 nM in test [1] (setting [3]) and less than 10 nM in test [2] (setting [4]).

With `N#Cc1cc(-c2ccnc(Nc3ccc(N4CCOCC4)cc3)n2)ccc1OCC1CCOCC1` [Example 158, 5-(2-{[4-(morpholin-4-yl)phenyl]amino}pyrimidin-4-yl)-2-(tetrahydro-2H-pyran-4-ylmethoxy) benzonitrile], the IC50 in test [1] (setting [3]) is less than 5 nM; in test [2] (setting [4]), less than 10 nM.

For `CC(C)(C)Oc1ccc(-c2ccnc(Nc3ccc(N4CCOCC4)cc3)n2)cc1C#N` [Example 164, 2-tert-Butyoxy-5-(2-{[4-(morpholin-4-yl)phenyl]amino}pyrimidin-4-yl)benzonitrile], the IC50 was less than 5 nM in test [1] (setting [3]) and less than 10 nM in test [2] (setting [4]).

On to `N#Cc1cc(-c2ccnc(Nc3ccc(N4CCOCC4)cc3)n2)ccc1OC1CCCCC1` [Example 165, 2-(Cyclohexyloxy)-5-(2-{[4-(morpholin-4-yl)phenyl]amino}pyrimidin-4-yl)benzonitrile], for which the concentration for half-maximal inhibition (IC50) is less than 5 nM in test [1] (setting [3]) and less than 10 nM in test [2] (setting [4]).

For `N#Cc1cc(-c2ccnc(Nc3ccc(N4CCOCC4)cc3)n2)ccc1OCc1cccnc1` [Example 168, 5-(2-{[4-(Morpholin-4-yl)phenyl]amino}pyrimidin-4-yl)-2-(pyridin-3-ylmethoxy) benzonitrile], the figures for the IC50 in test [1] (setting [3]) and in test [2] (setting [4]) were 5 to 50 nM and less than 10 nM, respectively.

`COc1ccc(Nc2nccc(-c3ccc(OC(C)(C)C)c(C#N)c3)n2)cc1OC` [Example 169, 2-tert-Butoxy-5-{2-[(3,4-dimethoxyphenyl)amino]pyrimidin-4-yl}benzonitrile]: the figures for the IC50 in test [1] (setting [3]) and in test [2] (setting [4]) were 5 to 50 nM and 10 to 100 nM, respectively.

Turning to `CS(=O)(=O)N1CCC(Nc2ccc(Nc3nccc(-c4ccc(OC5CCOCC5)c(C#N)c4)n3)cc2)CC1` [Example 171, 5-{2-[(4-{[1-(methylsulfonyl)piperidin-4-yl]amino}phenyl)amino]pyrimidin-4-yl}-2-(tetrahydro-2H-pyran-4-yloxy)benzonitrile], the IC50 in test [1] (setting [3]) was less than 5 nM; in test [2] (setting [4]), less than 10 nM.

Turning to `COc1cc(C#N)cc(-c2ccnc(Nc3ccc(OC)c(OC)c3)n2)c1` [Example 172, 3-{2-[(3,4-Dimethoxyphenyl)amino]pyrimidin-4-yl}-5-methoxybenzonitrile], the values for the half-maximal inhibitory concentration (IC50) in test [1] (setting [3]) and in test [2] (setting [4]) were 5 to 50 nM and 10 to 100 nM, respectively.

Consider `CS(=O)(=O)NCCOc1ccc(-c2ccnc(Nc3ccc(N4CCOCC4)cc3)n2)cc1C#N` [Example 177, N-{2-[2-cyano-4-(2-{[4-(morpholin-4-yl)phenyl]amino}pyrimidin-4-yl)phenoxy]ethyl} methanesulfonamide], for which the half-inhibitory concentration (IC50) lay within 5 to 50 nM in test [1] (setting [3]) and 10 to 100 nM in test [2] (setting [4]).

With `N#Cc1cc(-c2ccnc(Nc3ccc(N4CCOCC4)cc3)n2)ccc1OCc1ccccc1` [Example 179, 2-(Benzyloxy)-5-(2-{[4-(morpholin-4-yl)phenyl]amino}pyrimidin-4-yl)benzonitrile], the IC50 in test [1] (setting [3]) fell in the range of 5 to 50 nM; in test [2] (setting [4]), 10 to 100 nM.

Turning to `N#Cc1cc(-c2ccnc(Nc3ccc(N4CCOCC4)cc3)n2)ccc1OCCCNC(=O)CO` [Example 181, N-{3-[2-cyano-4-(2-{[4-(morpholin-4-yl)phenyl]amino}pyrimidin-4-yl)phenoxy]propyl}-2-hydroxyacetamide], the IC50 was less than 5 nM in test [1] (setting [3]) and less than 10 nM in test [2] (setting [4]).

As to `CN(C)CC(=O)Nc1ccc(Nc2nccc(-c3cccc(C#N)c3)n2)cc1` [Example 183], the IC50 in test [1] (setting [3]) was in the range of 50 to 500 nM; in test [2] (setting [4]), 10 to 100 nM.

For the molecule `N#Cc1cc(-c2ccnc(Nc3ccc(N)cc3)n2)ccc1OC1CCOCC1` [Example 184, 5-{2-[(4-Aminophenyl)amino]pyrimidin-4-yl}-2-(tetrahydro-2H-pyran-4-yloxy)benzonitrile], the IC50 in test [1] (setting [3]) was less than 5 nM; in test [2] (setting [4]), less than 10 nM.

Consider `COc1cc(Nc2nccc(-c3ccc(OC4CCNCC4)c(C#N)c3)n2)ccc1N1CCOCC1` [Example 186, 5-(2-{[3-methoxy-4-(morpholin-4-yl)phenyl]amino}pyrimidin-4-yl)-2-(piperidin-4-yloxy)benzonitrile], for which the values for the half-maximal inhibitory concentration (IC50) in test [1] (setting [3]) and in test [2] (setting [4]) were 5 to 50 nM and 10 to 100 nM, respectively.

Regarding `N#Cc1cc(-c2ccnc(Nc3ccc(N4CCOCC4)cc3)n2)ccc1OC1CCN(C=O)C1` (stereo not drawn) [Example 187, 2-[(1-formylpyrrolidin-3-yl)oxy]-5-(2-{[4-(morpholin-4-yl)phenyl]amino}pyrimidin-4-yl)benzonitrile], the IC50 is 5 to 50 nM in test [1] (setting [3]) and less than 10 nM in test [2] (setting [4]).

Regarding `N#Cc1cc(-c2ccnc(Nc3ccc(N4CCOCC4)cc3)n2)ccc1OC1CCN(C(=O)C2(N)CC2)C1` (stereo not drawn) [Example 189, 2-({1-[(1-aminocyclopropyl)carbonyl]pyrrolidin-3-yl}oxy)-5-(2-{[4-(morpholin-4-yl)phenyl]amino}pyrimidin-4-yl)benzonitrile], the IC50 in test [1] (setting [3]) is 50 to 500 nM; in test [2] (setting [4]), 100 to 500 nM.

Consider `N#Cc1cc(-c2ccnc(Nc3ccc(N4CCOCC4)cc3)n2)ccc1OC1CCN(C(=O)CO)CC1` [Example 190, 2-{[1-(Hydroxyacetyl)piperidin-4-yl]oxy}-5-(2-{[4-(morpholin-4-yl)phenyl]amino}pyrimidin-4-yl)benzonitrile], for which the IC50 is 0.4 nM in test [1] (Table 3, read-out: IKKε IC50); less than 5 nM in test [1] (setting [3]); 0.3 nM in test [2] (Table 3, read-out: TBK1 IC50); less than 10 nM in test [2] (setting [4]).

For `CC(C)Oc1ccc(-c2ccnc(Nc3ccc(N4CCOCC4)cc3)n2)cc1C#N` [Example 191, 5-(2-{[4-(Morpholin-4-yl)phenyl]amino}pyrimidin-4-yl)-2-(propan-2-yloxy)benzonitrile], the IC50 is less than 5 nM in test [1] (setting [3]) and less than 10 nM in test [2] (setting [4]).

On to `N#Cc1cc(-c2ccnc(Nc3ccc(N4CCOCC4)cc3)n2)ccc1OC1CCNCC1` [Example 194, 5-(2-{[4-(Morpholin-4-yl)phenyl]amino}pyrimidin-4-yl)-2-(piperidin-4-yloxy)benzonitrile], for which the IC50 in test [1] (setting [3]) was 5 to 50 nM; in test [2] (setting [4]), less than 10 nM.
